Values after ≈ are worked out from the molar mass of the structure shown.
Tests used:
Haemophilus influenzae [1] = assay: Antibacterial activity against Haemophilus influenzae SR24169 clinical isolate by broth microdilution method; assay type: functional
Streptococcus pneumoniae [2] = assay: Half life in erythromycin-resistant Streptococcus pneumoniae SR26132 clinical isolate expressing ermB gene in vitro pharmacodynamic model; assay type: ADME, organism-based; conditions: in vivo
Haemophilus influenzae [3] = assay: Cmax in Haemophilus influenzae SR24169 clinical isolate in vitro pharmacodynamic model; assay type: ADME, organism-based; conditions: in vivo
Haemophilus influenzae [4] = assay: Ratio of Cmax to MIC in Haemophilus influenzae SR24169 clinical isolate based on area above the killing curve index by maximum antibacterial activity criteria based in vitro pharmacodynamic model; assay type: functional
Streptococcus pneumoniae [5] = assay: Antibacterial activity against erythromycin-resistant Streptococcus pneumoniae SR26132 clinical isolate expressing ermB gene by broth microdilution method; assay type: functional
Haemophilus influenzae [6] = assay: AUC (0 to 24 hrs) in Haemophilus influenzae SR24169 clinical isolate in vitro pharmacodynamic model; assay type: ADME, organism-based; design: time < 24 hr; conditions: in vivo
Streptococcus pneumoniae [7] = assay: Half maximum antibacterial activity against erythromycin-resistant Streptococcus pneumoniae SR26143 clinical isolate expressing mefA gene based on area above the killing curve index in vitro pharmacodynamic model; assay type: ADME, organism-based; conditions: in vivo
Streptococcus pneumoniae [8] = assay: Ratio of AUC (0 to 24 hrs) to MIC in erythromycin-susceptible Streptococcus pneumoniae SR26229 clinical isolate by maximal efficacy criteria based in vitro pharmacodynamic model; assay type: functional
Streptococcus pneumoniae [9] = assay: Maximum antibacterial activity against erythromycin-resistant Streptococcus pneumoniae SR26132 clinical isolate expressing ermB gene based on viable cell reduction at 24 hrs index in vitro pharmacodynamic model; assay type: ADME, organism-based
Streptococcus pneumoniae [10] = assay: Ratio of AUC (0 to 24 hrs) to MIC in erythromycin-resistant Streptococcus pneumoniae SR26143 clinical isolate expressing mefA gene by maximal efficacy criteria based in vitro pharmacodynamic model; assay type: functional
Haemophilus influenzae [11] = assay: Ratio of AUC (0 to 24 hrs) to MIC in Haemophilus influenzae SR24169 clinical isolate based on area above the killing curve index by half maximum antibacterial activity criteria based in vitro pharmacodynamic model; assay type: functional
Streptococcus pneumoniae [12] = assay: AUC (0 to 24 hrs) in erythromycin-resistant Streptococcus pneumoniae SR26143 clinical isolate expressing mefA in vitro pharmacodynamic model; assay type: ADME, organism-based; design: time < 24 hr; conditions: in vivo
Haemophilus influenzae [13] = assay: Ratio of Cmax to MIC in Haemophilus influenzae SR24169 clinical isolate based on area above the killing curve index by minimum antibacterial activity criteria based in vitro pharmacodynamic model; assay type: functional
Haemophilus influenzae [14] = assay: Ratio of Cmax to MIC in Haemophilus influenzae SR24169 clinical isolate based on viable cell reduction at 24 hrs index by minimum antibacterial activity criteria based in vitro pharmacodynamic model; assay type: functional
Haemophilus influenzae [15] = assay: %TMIC in Haemophilus influenzae SR24169 clinical isolate based on area above the killing curve index by maximum antibacterial activity criteria based in vitro pharmacodynamic model; assay type: functional
Streptococcus pneumoniae [16] = assay: Half maximum antibacterial activity against erythromycin-resistant Streptococcus pneumoniae SR26143 clinical isolate expressing mefA gene based on viable cell reduction at 24 hrs index in vitro pharmacodynamic model; assay type: ADME, organism-based
Haemophilus influenzae [17] = assay: %TMIC in Haemophilus influenzae SR24169 clinical isolate based on viable cell reduction at 24 hrs index by maximum antibacterial activity criteria based in vitro pharmacodynamic model; assay type: functional
Streptococcus pneumoniae [18] = assay: Maximum antibacterial activity against erythromycin-resistant Streptococcus pneumoniae SR26132 clinical isolate expressing ermB gene based on area above the killing curve index in vitro pharmacodynamic model; assay type: ADME, organism-based; conditions: in vivo
Streptococcus pneumoniae [19] = assay: Cmax in erythromycin-resistant Streptococcus pneumoniae SR26143 clinical isolate expressing mefA gene in vitro pharmacodynamic model; assay type: ADME, organism-based; conditions: in vivo
Streptococcus pneumoniae [20] = assay: Ratio of AUC (0 to 24 hrs) to MIC in erythromycin-susceptible Streptococcus pneumoniae SR26229 clinical isolate by bacteriostatic effect criteria based in vitro pharmacodynamic model; assay type: functional
Streptococcus pneumoniae [21] = assay: Minimum antibacterial activity against erythromycin-susceptible Streptococcus pneumoniae SR26229 clinical isolate based on area above the killing curve index in vitro pharmacodynamic model; assay type: ADME, organism-based; conditions: in vivo
Streptococcus pneumoniae [22] = assay: Ratio of AUC (0 to 24 hrs) to MIC in erythromycin-resistant Streptococcus pneumoniae SR26132 clinical isolate expressing ermB gene by bacteriostatic effect criteria based in vitro pharmacodynamic model; assay type: functional
Haemophilus influenzae [23] = assay: Ratio of Cmax to MIC in Haemophilus influenzae SR24169 clinical isolate based on area above the killing curve index by half maximum antibacterial activity criteria based in vitro pharmacodynamic model; assay type: functional
Streptococcus pneumoniae [24] = assay: Ratio of AUC (0 to 24 hrs) to MIC in erythromycin-resistant Streptococcus pneumoniae SR26132 clinical isolate expressing ermB gene by maximal efficacy criteria based in vitro pharmacodynamic model; assay type: functional
Streptococcus pneumoniae [25] = assay: Maximum antibacterial activity against erythromycin-resistant Streptococcus pneumoniae SR26143 clinical isolate expressing mefA gene based on viable cell reduction at 24 hrs index in vitro pharmacodynamic model; assay type: ADME, organism-based
Streptococcus pneumoniae [26] = assay: Maximum antibacterial activity against erythromycin-susceptible Streptococcus pneumoniae SR26229 clinical isolate based on viable cell reduction at 24 hrs index in vitro pharmacodynamic model; assay type: ADME, organism-based
Streptococcus pneumoniae [27] = assay: Minimum antibacterial activity against erythromycin-susceptible Streptococcus pneumoniae SR26229 clinical isolate based on viable cell reduction at 24 hrs index in vitro pharmacodynamic model; assay type: ADME, organism-based
Haemophilus influenzae [28] = assay: Ratio of AUC (0 to 24 hrs) to MIC in Haemophilus influenzae SR24169 clinical isolate based on viable cell reduction at 24 hrs index by half maximum antibacterial activity criteria based in vitro pharmacodynamic model; assay type: functional

With `CC[C@H]1OC(=O)[C@H](C)C(=O)[C@H](C)[C@@H](O[C@@H]2O[C@H](C)C[C@H](N(C)C)[C@H]2O)[C@@]2(C)C[C@@H](C)/C(=N\C(C)=O)[C@H](C)C(OC/C(=N\OCc3ccc(-n4cccn4)nc3)CO2)[C@]1(C)O` (single isomer, unassigned) the MIC (Haemophilus influenzae [1]) was 8 µg/mL (≈ 9.51 µM), the t1/2 (Streptococcus pneumoniae [2]) was 17.6 h and the Cmax (Haemophilus influenzae [3]) was 506 ng/mL. For the same compound, the Ratio (Haemophilus influenzae [4]) was 75.7785, the MIC (Streptococcus pneumoniae [5]) was 0.25 µg/mL (≈ 0.297 µM) and the AUC (Haemophilus influenzae [6]) was 8610 ng·h/mL. For the same compound, the Activity (Streptococcus pneumoniae [7]) was 16.64, the Ratio (Streptococcus pneumoniae [8]) was 16.3 and the Activity (Streptococcus pneumoniae [9]) was 5.98. For the same compound, the Ratio (Streptococcus pneumoniae [10]) was 22.3, the Ratio (Haemophilus influenzae [11]) was 6.9338 and the AUC (Streptococcus pneumoniae [12]) was 140 ng·h/mL. The Ratio (Haemophilus influenzae [13]) was 0, the Ratio (Haemophilus influenzae [14]) was -2.3622 and the Ratio (Haemophilus influenzae [15]) was 79.0912. The Activity (Streptococcus pneumoniae [16]) was 15.89, the Ratio (Haemophilus influenzae [17]) was 4.6778 and the Activity (Streptococcus pneumoniae [18]) was 84.15. The Cmax (Streptococcus pneumoniae [19]) was 8 ng/mL, the Ratio (Streptococcus pneumoniae [20]) was 9.01 and the Activity (Streptococcus pneumoniae [21]) was 0. It also gave a Ratio (Streptococcus pneumoniae [22]) of 4.66, a Ratio (Haemophilus influenzae [23]) of 0.6894 and a Ratio (Streptococcus pneumoniae [24]) of 22. The Activity (Streptococcus pneumoniae [25]) was 6.12, the Activity (Streptococcus pneumoniae [26]) was 6.22 and the Activity (Streptococcus pneumoniae [27]) was 2.64. The Ratio (Haemophilus influenzae [28]) was 10.1172.
